Laboratory results from article PMC9584352, “Conserved Pib2 regions have distinct roles in TORC1 regulation at the vacuole” (Journal of Cell Science, 2022).

T1: EEA1 1287–1411 (Homo sapiens, UniProt Q15075)
T1 construct: purified; largely dimeric by SEC-MALS
T1 sequence (Q15075 1287-1411): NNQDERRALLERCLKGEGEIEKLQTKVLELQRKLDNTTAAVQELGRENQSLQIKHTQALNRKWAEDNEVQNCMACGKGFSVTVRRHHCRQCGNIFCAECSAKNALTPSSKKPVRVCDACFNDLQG

T2: Pib2 419–625 (Saccharomyces cerevisiae, UniProt P53191)
T2 construct: FYVE domain fragment starting 23 residues before the FYVE core, residues 419-625; purified; predominantly monomeric by SEC-MALS
T2 sequence (P53191 419-625): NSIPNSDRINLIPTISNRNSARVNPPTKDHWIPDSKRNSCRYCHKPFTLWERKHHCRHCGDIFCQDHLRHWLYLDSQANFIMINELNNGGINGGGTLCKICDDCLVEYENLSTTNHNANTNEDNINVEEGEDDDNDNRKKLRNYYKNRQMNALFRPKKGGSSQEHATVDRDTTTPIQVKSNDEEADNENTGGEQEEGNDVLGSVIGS

T3: Pib2 442–625 (Saccharomyces cerevisiae, UniProt P53191)
T3 construct: FYVE domain fragment, start of FYVE domain to beginning of tail motif, residues 442-625; purified; predominantly monomeric by SEC-MALS
T3 sequence (P53191 442-625): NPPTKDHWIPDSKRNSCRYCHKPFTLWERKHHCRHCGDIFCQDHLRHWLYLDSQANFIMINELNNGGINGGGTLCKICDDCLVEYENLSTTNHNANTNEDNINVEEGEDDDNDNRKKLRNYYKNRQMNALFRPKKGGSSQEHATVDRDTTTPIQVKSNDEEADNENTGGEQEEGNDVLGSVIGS

T4: EEA1 1347–1411 (Homo sapiens, UniProt Q15075)
T4 construct: purified; largely monomeric by SEC-MALS
T4 sequence (Q15075 1347-1411): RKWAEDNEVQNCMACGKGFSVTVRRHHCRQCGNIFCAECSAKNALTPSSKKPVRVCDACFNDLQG

B1: EEA1 1287–1411 (domain or fragment, UniProt Q15075 1287-1411, looked up)
chain: T1 sequence (Q15075 1287-1411)
notes: also called longer EEA1 FYVE construct; source: purified

Columns and labels:
EEA1 1287–1411 = target: T1, EEA1 1287–1411; experiment: ITC; format: binding
Pib2 419–625 = target: T2, Pib2 419–625; experiment: ITC; format: binding
Pib2 442–625 = target: T3, Pib2 442–625; experiment: ITC; format: binding
EEA1 1347–1411 = target: T4, EEA1 1347–1411; experiment: ITC; format: binding
[1] = target: the molecule itself; experiment: SEC-MALS; Superdex 75 10/300 in 20 mM Tris-HCl pH 7.4, 150 mM NaCl, 1.93 mM β-mercaptoethanol, room temperature; 500 µl of each protein loaded at 50 or 100 µM as indicated; detectors at 25°C

| Molecule | Kd (EEA1 1287–1411) [µM] | Kd (Pib2 419–625) [µM] | Kd (Pib2 442–625) [µM] | Kd (EEA1 1347–1411) [µM] | stoichiometry N [1] |
| --- | --- | --- | --- | --- | --- |
| O=P(O)(O)O[C@@H]1[C@H](O)[C@H](OP(=O)(O)O)[C@@H](O)[C@H](O)[C@H]1O [inositol 1,3-bisphosphate] | ~95.8 | > 290 | 212 | > 300 |  |
| CCCC(=O)OC[C@H](COP(=O)(O)O[C@@H]1[C@H](O)[C@H](OP(=O)(O)O)[C@@H](O)[C@H](O)[C@H]1O)OC(=O)CCC [PI3P diC4] |  |  | 736 |  |  |
| B1 |  |  |  |  | 2 |
